#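 The compound was tested at five concentrations on cells cultured in 96-well plates, with a 48-hour exposure period. GI50 marks 50% less growth.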 Active and inactive are the calls of the source. No stated cut-off is given here; in the data, active = GI50 up to about 1.1 µM and inactive = higher.
# How the values were obtained:
# Test in all cases: growth of human tumour cells (NCI), 48 h
# UO-31 = tested on: UO-31
# SF-268 = tested on: SF-268
# UACC-62 = tested on: UACC-62
# Malme-3M = tested on: Malme-3M
# IGROV-1 = tested on: IGROV-1
# CAKI-1 = tested on: CAKI-1
# Hs-578T = tested on: Hs-578T
# ACHN = tested on: ACHN
# SK-MEL-5 = tested on: SK-MEL-5
# SR = tested on: SR
# SK-OV-3 = tested on: SK-OV-3
# CCRF-CEM = tested on: CCRF-CEM
# LOX IMVI = tested on: LOX IMVI
# HL-60 = tested on: HL-60
# COLO 205 = tested on: COLO 205
# 786-0 = tested on: 786-0
# SW-620 = tested on: SW-620
# SNB-75 = tested on: SNB-75
# MOLT-4 = tested on: MOLT-4
# OVCAR-4 = tested on: OVCAR-4
# K562 = tested on: K562
# MDA-MB-435 = tested on: MDA-MB-435
# SK-MEL-28 = tested on: SK-MEL-28
# A549 = tested on: A549
# NCI-H522 = tested on: NCI-H522
# NCI-H460 = tested on: NCI-H460
# RPMI-8226 = tested on: RPMI-8226
# SF-295 = tested on: SF-295
# OVCAR-3 = tested on: OVCAR-3
# BT-549 = tested on: BT-549
# MCF7 = tested on: MCF7
# T47D = tested on: T47D
# NCI-H226 = tested on: NCI-H226
# OVCAR-8 = tested on: OVCAR-8
# UACC-257 = tested on: UACC-257
# U-251 = tested on: U-251
# HOP-92 = tested on: HOP-92
# HCT-116 = tested on: HCT-116
# MDA-N = tested on: MDA-N
# OVCAR-5 = tested on: OVCAR-5
# SK-MEL-2 = tested on: SK-MEL-2
# HT-29 = tested on: HT-29
# KM12 = tested on: KM12
# SN12C = tested on: SN12C
# TK-10 = tested on: TK-10
# M14 = tested on: M14
# PC-3 = tested on: PC-3
# EKVX = tested on: EKVX
# HCT-15 = tested on: HCT-15
# NCI-H23 = tested on: NCI-H23
# NCI/ADR-RES = tested on: NCI/ADR-RES
# DU-145 = tested on: DU-145
# HOP-62 = tested on: HOP-62
# SNB-19 = tested on: SNB-19
# SF-539 = tested on: SF-539
# HCC 2998 = tested on: HCC 2998
smiles,measurement,setting,value
CCCC[S+]([O-])CCC(N)P(=O)(O)O (stereo not given),GI50,UO-31,> 100 µM (inactive)
same,GI50,SF-268,> 100 µM (inactive)
same,GI50,UACC-62,> 100 µM (inactive)
same,GI50,Malme-3M,> 100 µM (inactive)
same,GI50,IGROV-1,> 100 µM (inactive)
same,GI50,CAKI-1,> 100 µM (inactive)
same,GI50,Hs-578T,> 100 µM (inactive)
same,GI50,ACHN,> 100 µM (inactive)
same,GI50,SK-MEL-5,> 100 µM (inactive)
same,GI50,SR,> 100 µM (inactive)
same,GI50,SK-OV-3,> 100 µM (inactive)
same,GI50,CCRF-CEM,> 100 µM (inactive)
same,GI50,LOX IMVI,> 100 µM (inactive)
same,GI50,HL-60,> 100 µM (inactive)
same,GI50,COLO 205,> 100 µM (inactive)
same,GI50,786-0,> 100 µM (inactive)
same,GI50,SW-620,> 100 µM (inactive)
same,GI50,SNB-75,> 100 µM (inactive)
same,GI50,MOLT-4,> 100 µM (inactive)
same,GI50,OVCAR-4,> 100 µM (inactive)
same,GI50,K562,> 100 µM (inactive)
same,GI50,MDA-MB-435,> 100 µM (inactive)
same,GI50,SK-MEL-28,> 100 µM (inactive)
same,GI50,A549,> 100 µM (inactive)
same,GI50,NCI-H522,> 100 µM (inactive)
same,GI50,NCI-H460,> 100 µM (inactive)
same,GI50,RPMI-8226,> 100 µM (inactive)
same,GI50,SF-295,> 100 µM (inactive)
same,GI50,OVCAR-3,> 100 µM (inactive)
same,GI50,BT-549,> 100 µM (inactive)
same,GI50,MCF7,> 100 µM (inactive)
same,GI50,T47D,> 100 µM (inactive)
same,GI50,NCI-H226,> 100 µM (inactive)
same,GI50,OVCAR-8,> 100 µM (inactive)
same,GI50,UACC-257,> 100 µM (inactive)
same,GI50,U-251,> 100 µM (inactive)
same,GI50,HOP-92,> 100 µM (inactive)
same,GI50,HCT-116,> 100 µM (inactive)
same,GI50,MDA-N,> 100 µM (inactive)
same,GI50,OVCAR-5,> 100 µM (inactive)
same,GI50,SK-MEL-2,> 100 µM (inactive)
same,GI50,HT-29,> 100 µM (inactive)
same,GI50,KM12,> 100 µM (inactive)
same,GI50,SN12C,> 100 µM (inactive)
same,GI50,TK-10,> 100 µM (inactive)
same,GI50,M14,> 100 µM (inactive)
same,GI50,PC-3,> 100 µM (inactive)
same,GI50,EKVX,> 100 µM (inactive)
same,GI50,HCT-15,> 100 µM
same,GI50,NCI-H23,> 100 µM (inactive)
same,GI50,NCI/ADR-RES,> 100 µM (inactive)
same,GI50,DU-145,> 100 µM (inactive)
same,GI50,HOP-62,> 100 µM (inactive)
same,GI50,SNB-19,> 100 µM (inactive)
Cc1cc(OC(=O)Nc2cccc3ccccc23)c(C(C)C)cc1C(=S)Nc1ccccc1,GI50,UO-31,17.6 µM (inactive)
same,GI50,SF-268,23.9 µM (inactive)
same,GI50,UACC-62,12.5 µM (inactive)
same,GI50,Malme-3M,17.3 µM (inactive)
same,GI50,IGROV-1,13.6 µM (inactive)
same,GI50,CAKI-1,22.1 µM (inactive)
same,GI50,Hs-578T,12.3 µM (inactive)
same,GI50,ACHN,24.2 µM (inactive)
same,GI50,SK-MEL-5,14.4 µM (inactive)
same,GI50,SR,6.49 µM (inactive)
same,GI50,SK-OV-3,10.4 µM (inactive)
same,GI50,CCRF-CEM,7.6 µM (inactive)
same,GI50,LOX IMVI,14.7 µM (inactive)
same,GI50,HL-60,2.42 µM (inactive)
same,GI50,COLO 205,19.6 µM (inactive)
same,GI50,786-0,23.4 µM (inactive)
same,GI50,SW-620,16.8 µM (inactive)
same,GI50,MOLT-4,11.4 µM (inactive)
same,GI50,OVCAR-4,11 µM (inactive)
same,GI50,K562,5.77 µM (inactive)
same,GI50,MDA-MB-435,18.1 µM (inactive)
same,GI50,SK-MEL-28,18 µM (inactive)
same,GI50,A549,21.8 µM (inactive)
same,GI50,NCI-H522,14.1 µM (inactive)
same,GI50,NCI-H460,16.9 µM (inactive)
same,GI50,RPMI-8226,21.1 µM (inactive)
same,GI50,SF-295,0.0608 µM (active)
same,GI50,SF-539,16.7 µM (inactive)
same,GI50,OVCAR-3,16.1 µM (inactive)
same,GI50,BT-549,12.1 µM (inactive)
same,GI50,MCF7,17.4 µM (inactive)
same,GI50,T47D,8.17 µM (inactive)
same,GI50,OVCAR-8,12.7 µM (inactive)
same,GI50,UACC-257,18.7 µM (inactive)
same,GI50,U-251,18.1 µM (inactive)
same,GI50,HCT-116,17.8 µM (inactive)
same,GI50,MDA-N,17.9 µM (inactive)
same,GI50,OVCAR-5,20.7 µM (inactive)
same,GI50,SK-MEL-2,13.7 µM (inactive)
same,GI50,HT-29,18.7 µM (inactive)
same,GI50,KM12,16.3 µM (inactive)
same,GI50,M14,18.6 µM (inactive)
same,GI50,PC-3,15.7 µM (inactive)
same,GI50,HCC 2998,20.6 µM (inactive)
same,GI50,EKVX,23.7 µM (inactive)
same,GI50,HCT-15,10.9 µM
same,GI50,NCI-H23,15.7 µM (inactive)
same,GI50,NCI/ADR-RES,16.6 µM (inactive)
same,GI50,DU-145,22.3 µM (inactive)
same,GI50,HOP-62,16.6 µM (inactive)
same,GI50,SNB-19,27.2 µM (inactive)

# From ChEMBL document CHEMBL1201862, “PubChem BioAssay data set” (2004)
